Activity, IC50 and CI data for 1 compound are collected here from ChEMBL document CHEMBL6071181, “Discovery of ZLC491 as a Potent, Selective, and Orally Bioavailable CDK12/13 PROTAC Degrader” (J Med Chem, 2024).

Calls of active or inactive are those of the source. The rule behind the calls is not given here. Where only a bound is given, the exact number is not on record here.

For data set [1], the target named is T1, Protein cereblon/Cyclin-dependent kinase 13 (Homo sapiens) (UniProt Q14004+Q96SW2). In words: PROTAC activity at CRBN/CDK13 in human MDA-MB-231 cells assessed as induction of CDK13 degradation incubated for 15 hrs by immunoblotting analysis. The class given is cell-based. In general terms: Immunoblotting shows a protein as a band on a membrane.
T1 sequence (Q14004 whole entry, looked up): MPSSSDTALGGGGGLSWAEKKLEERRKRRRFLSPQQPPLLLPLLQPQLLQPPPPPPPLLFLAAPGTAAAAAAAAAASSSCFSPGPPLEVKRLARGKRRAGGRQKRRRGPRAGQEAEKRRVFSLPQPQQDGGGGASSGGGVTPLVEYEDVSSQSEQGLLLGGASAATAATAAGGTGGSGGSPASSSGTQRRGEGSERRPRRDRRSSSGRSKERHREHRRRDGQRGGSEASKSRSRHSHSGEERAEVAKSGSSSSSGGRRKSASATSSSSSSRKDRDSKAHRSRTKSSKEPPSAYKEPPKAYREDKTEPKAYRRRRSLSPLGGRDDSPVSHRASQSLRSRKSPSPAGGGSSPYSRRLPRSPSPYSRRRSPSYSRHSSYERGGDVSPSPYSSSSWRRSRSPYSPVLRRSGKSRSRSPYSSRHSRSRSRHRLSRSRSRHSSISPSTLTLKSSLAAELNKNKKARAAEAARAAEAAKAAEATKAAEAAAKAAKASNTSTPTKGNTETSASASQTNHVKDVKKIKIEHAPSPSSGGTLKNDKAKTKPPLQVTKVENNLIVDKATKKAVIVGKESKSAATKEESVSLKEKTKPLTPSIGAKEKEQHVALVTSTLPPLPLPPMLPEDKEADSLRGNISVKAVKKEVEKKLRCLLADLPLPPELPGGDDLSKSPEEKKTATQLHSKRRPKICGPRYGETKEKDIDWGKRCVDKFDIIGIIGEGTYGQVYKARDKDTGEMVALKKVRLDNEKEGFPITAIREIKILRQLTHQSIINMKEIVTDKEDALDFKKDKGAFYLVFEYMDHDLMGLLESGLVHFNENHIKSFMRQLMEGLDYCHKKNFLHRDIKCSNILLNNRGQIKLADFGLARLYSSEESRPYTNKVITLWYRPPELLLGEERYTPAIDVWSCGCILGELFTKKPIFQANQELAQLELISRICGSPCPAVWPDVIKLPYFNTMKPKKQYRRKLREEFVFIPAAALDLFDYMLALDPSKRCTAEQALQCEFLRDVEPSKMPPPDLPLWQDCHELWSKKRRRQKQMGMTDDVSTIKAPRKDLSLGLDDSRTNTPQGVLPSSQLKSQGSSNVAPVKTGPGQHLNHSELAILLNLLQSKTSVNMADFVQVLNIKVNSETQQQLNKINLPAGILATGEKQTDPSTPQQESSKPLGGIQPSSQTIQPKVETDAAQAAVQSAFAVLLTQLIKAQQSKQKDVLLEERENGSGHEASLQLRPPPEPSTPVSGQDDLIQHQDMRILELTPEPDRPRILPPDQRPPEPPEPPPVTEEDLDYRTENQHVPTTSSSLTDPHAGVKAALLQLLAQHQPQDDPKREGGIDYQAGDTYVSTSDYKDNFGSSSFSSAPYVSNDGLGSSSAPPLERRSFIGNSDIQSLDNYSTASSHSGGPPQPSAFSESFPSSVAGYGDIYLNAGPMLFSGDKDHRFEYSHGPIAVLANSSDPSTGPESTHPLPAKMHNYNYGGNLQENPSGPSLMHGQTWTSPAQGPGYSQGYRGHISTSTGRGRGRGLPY
T1 sequence (Q96SW2 whole entry, looked up): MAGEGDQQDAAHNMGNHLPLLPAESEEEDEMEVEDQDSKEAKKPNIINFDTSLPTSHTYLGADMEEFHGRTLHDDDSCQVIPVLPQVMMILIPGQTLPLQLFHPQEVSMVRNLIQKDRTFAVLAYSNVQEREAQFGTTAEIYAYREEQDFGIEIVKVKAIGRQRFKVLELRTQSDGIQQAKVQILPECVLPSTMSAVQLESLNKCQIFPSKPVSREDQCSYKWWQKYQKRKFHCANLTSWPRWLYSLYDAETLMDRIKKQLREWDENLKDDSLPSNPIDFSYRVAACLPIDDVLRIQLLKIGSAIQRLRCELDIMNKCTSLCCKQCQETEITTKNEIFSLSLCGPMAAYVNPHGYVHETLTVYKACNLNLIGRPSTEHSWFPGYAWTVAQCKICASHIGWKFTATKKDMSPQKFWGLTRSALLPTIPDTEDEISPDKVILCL
Data set [2] concerns the target T2, Protein cereblon/Cyclin-dependent kinase 12 (Homo sapiens) (UniProt Q9NYV4+Q96SW2). In words: PROTAC activity at CRBN/CDK12 in human MDA-MB-436 cells assessed as induction of CDK12 degradation incubated for 15 hrs by immunoblotting analysis. Format: cell-based. The settings on record: dose 0.01-3 µM.
The target of data set [3] is T2, Protein cereblon/Cyclin-dependent kinase 12 (Homo sapiens). Kind of data set: PROTAC activity at CRBN/CDK12 in human MDA-MB-231 cells assessed as induction of CDK12 degradation at 1 uM pretreated with MG132 followed by compound addition and measured after 10 hrs by immunoblotting analysis. Format: cell-based.
The target of data set [4] is T1, Protein cereblon/Cyclin-dependent kinase 13 (Homo sapiens). Kind of data set: PROTAC activity at CRBN/CDK13 in human MDA-MB-231 cells assessed as induction of CDK13 degradation at 1 uM pretreated with MLN4924 followed by compound addition and measured after 10 hrs by immunoblotting analysis. The class given is cell-based.
Data set [5] has the same target. In words: PROTAC activity at CRBN/CDK13 in human MDA-MB-231 cells assessed as induction of CDK13 degradation at 1 uM pretreated with bafilomycin followed by compound addition and measured after 10 hrs by immunoblotting analysis. Format: cell-based.
Data set [6] has as its target T2, Protein cereblon/Cyclin-dependent kinase 12 (Homo sapiens). Kind of data set: PROTAC activity at CRBN/CDK12 in human MDA-MB-231 cells assessed as induction of CDK12 degradation at 1 uM pretreated with pomalidomide followed by compound addition and measured after 10 hrs by immunoblotting analysis. The class given is cell-based.
Data set [7] concerns the target T1, Protein cereblon/Cyclin-dependent kinase 13 (Homo sapiens). In words: PROTAC activity at CRBN/CDK13 in human MDA-MB-231 cells assessed as induction of CDK13 degradation at 1 uM pretreated with pomalidomide followed by compound addition and measured after 10 hrs by immunoblotting analysis. Format: cell-based.
For data set [8] the target is unchanged. In words: PROTAC activity at CRBN/CDK13 in human MDA-MB-231 cells assessed as induction of CDK13 degradation at 2 uM by […] proteomic analysis. Format: cell-based.
For data set [9], the system named is MDA-MB-231. In words: Induction of CCNK degradation in human MDA-MB-231 cells incubated for 15 hrs by immunoblotting analysis. Format: cell-based. The settings on record: dose 0.01-3 µM.
Data set [10] has as its system MDA-MB-231. Kind of data set: Downregulation of ATR mRNA expression in human MDA-MB-231 cells incubated for 12 hrs by RT-qPCR analysis. The class given is functional, cell-based. Particulars: dose 60-300 nM. On the technique in general: In qPCR the cycle at which signal appears reflects the starting amount.
In data set [11] the test system is MDA-MB-231. Kind of data set: Downregulation of SMARCC mRNA expression in human MDA-MB-231 cells incubated for 12 hrs by RT-qPCR analysis. The class given is functional, cell-based. Particulars: dose 60-300 nM.
For data set [12], the system named is MDA-MB-231. Kind of data set: Downregulation of ATM protein level in human MDA-MB-231 cells at 0.1 to 0.5 uM incubated for 48 hrs by immunoblotting analysis. The settings on record: dose 0.1-0.5 µM. The class given is functional, cell-based.
Data set [13] in a line: Antiproliferative activity against human MRC5 cells assessed as inhibition of cell growth incubated for 5 days by CCK8 assay. The class given is toxicity, cell-based.
Data set [14] deals with MDA-MB-231. In words: Synergistic antiproliferative activity against human MDA-MB-231 cells assessed as combination index at 1.5 uM incubated for 5 days in presence of cisplatin by CCK8 assay. The class given is functional. Particulars: time 5 day. A general note: Tetrazolium assays rely on reduction of a dye to a coloured formazan, in cell work by metabolically active cells.

Data set [15] concerns MDA-MB-231. Kind of data set: Synergistic antiproliferative activity against human MDA-MB-231 cells assessed as combination index at 0.3 uM incubated for 5 days in presence of olaparib by CCK8 assay. Format: functional. The settings on record: time 5 day.
For data set [16], the system named is MDA-MB-231. Kind of data set: Antiproliferative activity against human MDA-MB-231 cells xenografted in female CB17SCID mouse model assessed as induction of tumor apoptosis at 200 mg/kg, po administered for 5 days by H and E staining based immunohistochemical analysis. The settings on record: time 5.0 day. The class given is functional, organism-based.

T2 sequence (Q96SW2 whole entry, looked up): as above
T2 sequence (Q9NYV4 whole entry, looked up): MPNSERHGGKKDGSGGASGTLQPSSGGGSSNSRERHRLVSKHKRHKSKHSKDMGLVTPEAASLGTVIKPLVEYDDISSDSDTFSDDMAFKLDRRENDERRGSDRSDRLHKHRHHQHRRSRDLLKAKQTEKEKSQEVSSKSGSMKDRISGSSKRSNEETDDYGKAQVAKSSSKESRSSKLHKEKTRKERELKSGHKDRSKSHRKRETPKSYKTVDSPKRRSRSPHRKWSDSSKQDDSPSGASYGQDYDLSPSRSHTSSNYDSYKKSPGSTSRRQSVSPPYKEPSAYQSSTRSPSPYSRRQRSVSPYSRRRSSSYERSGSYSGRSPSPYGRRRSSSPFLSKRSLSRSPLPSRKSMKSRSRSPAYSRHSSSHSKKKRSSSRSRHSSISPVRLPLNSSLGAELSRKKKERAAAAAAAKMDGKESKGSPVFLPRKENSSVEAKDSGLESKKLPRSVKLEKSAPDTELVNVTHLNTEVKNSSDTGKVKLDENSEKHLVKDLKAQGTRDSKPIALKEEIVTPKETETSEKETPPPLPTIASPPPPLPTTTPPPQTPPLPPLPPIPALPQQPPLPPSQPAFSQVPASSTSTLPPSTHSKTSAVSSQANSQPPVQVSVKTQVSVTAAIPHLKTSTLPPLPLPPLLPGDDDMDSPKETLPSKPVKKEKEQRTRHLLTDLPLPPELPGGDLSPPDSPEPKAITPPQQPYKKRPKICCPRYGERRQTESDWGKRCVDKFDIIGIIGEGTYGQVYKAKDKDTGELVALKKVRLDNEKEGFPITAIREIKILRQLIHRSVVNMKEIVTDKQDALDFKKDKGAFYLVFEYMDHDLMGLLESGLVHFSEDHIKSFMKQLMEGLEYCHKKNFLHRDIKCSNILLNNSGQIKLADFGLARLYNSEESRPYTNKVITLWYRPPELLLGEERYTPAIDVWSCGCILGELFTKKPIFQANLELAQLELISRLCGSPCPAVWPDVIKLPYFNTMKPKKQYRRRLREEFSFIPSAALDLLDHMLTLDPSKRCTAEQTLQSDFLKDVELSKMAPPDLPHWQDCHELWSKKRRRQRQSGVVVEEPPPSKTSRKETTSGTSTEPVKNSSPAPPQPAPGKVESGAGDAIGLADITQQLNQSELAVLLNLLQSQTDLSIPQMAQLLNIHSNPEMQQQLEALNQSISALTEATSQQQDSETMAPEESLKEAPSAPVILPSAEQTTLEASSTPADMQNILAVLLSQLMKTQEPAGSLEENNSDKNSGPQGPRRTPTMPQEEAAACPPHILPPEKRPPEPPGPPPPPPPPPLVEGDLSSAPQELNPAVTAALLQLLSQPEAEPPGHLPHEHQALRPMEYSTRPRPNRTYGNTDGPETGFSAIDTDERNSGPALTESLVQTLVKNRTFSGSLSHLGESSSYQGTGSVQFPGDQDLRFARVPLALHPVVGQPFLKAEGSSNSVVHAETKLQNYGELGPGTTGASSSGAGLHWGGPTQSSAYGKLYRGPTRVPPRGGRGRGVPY

On to `N#Cc1ccc(N[C@H]2CC[C@H](N(C(=O)NCc3ccccc3)c3ccc(N4CCN(C5CCN(c6cc7c(cc6F)C(=O)N(C6CCC(=O)NC6=O)C7=O)CC5)CC4)cc3)CC2)nc1` (stereo partly specified), for which the Activity result (in data set [1]; in data set [2]; in the data set on MDA-MB-231 [9]; with MDA-MB-231 [10]; in the data set with MDA-MB-231 [11]) was “Dose-Dependent Effect” in each case. Also, the outcome in data set [3], in data set [4], in data set [6] and in data set [7] was inactive. The result (in data set [5]; in data set [8]; with MDA-MB-231 [12]; in the data set with MDA-MB-231 [16]) was Active. Moreover, in data set [13], the IC50 at 5 days is above 10 µM. Further, the CI in the data set with MDA-MB-231 [14] was 0.17; with MDA-MB-231 [15], above 1.

The term IC50 denotes the concentration that inhibits the measured activity by half.
